Patent US5321045A, “Method and composition for the treatment of imflammatory conditions using thiosulphinic acid derivatives” (Boehringer Mannheim GmbH, priority 1987, dated 1994)

Legend:
[1] = tested on: allergen-induced asthma bronchiale; assay: Protective action in allergen-induced asthma bronchiale of guinea pigs (ovalbumin inhalation); format: in vivo; conditions: FIGS. 4-6; dosage as in 1a); ovalbumin one percent, twice
Experimental: 1. Investigation of the asthma-protective action of compounds in vivo. There was used a mixture of compound 1) (identical with formula III on p.13 of the German text) and compound 2) (identical with formula IV on p.13 of the German text). The ratio of 1): 2) amounted to about 1:2.
For the investigation of the asthma-protective action in vivo, corresponding experiments were carried out with guinea pigs (Dorsch W. et al., Pflugers Arch. 391, page 263 (1981).
9 guinea pigs were--was described under 1a)--corresponding to a randomised crossover protocol, either fed with the active component in olive oil or with the carrier olive oil alone. The dosage of the administered compound amounted to 20 mg./kg. body weight. 30 Minutes later, the animals inhaled twice, at an interval of 10 minutes, in each case for 20 seconds, a one percent ovalbumin solution, the substance to which they had been sensitised 3 weeks previously. The extent of the resulting bronchial obstruction was also determined whole body plethysmographically in 2 minute intervals for the period of twice 10 minutes (for the method see: Dorsch W, Walter O., Rosmanith J.: Continuous Recording of Intrapulmonary "Compressed Air" as a Sensitive Noninvasive Method of Measuring Branchial Obstruction in Guinea Pigs, Pflugers Arch. 391: 236-241 (1981)). […]

[2] = tested on: thromboxane biosynthesis of thrombin-stimulated platelet-rich plasma; assay: Inhibition of the thromboxane biosynthesis of thrombin-stimulated platelet-rich plasma; format: cell-based, human; conditions: 0.001 mg/ml to 1.0 mg/ml, 15 min
Experimental: The enzyme-inhibiting action of the compounds were determined in vitro; use of the mixture of compounds 1) and 2).
From a human donor was obtained platelet-rich plasma by the usual method and adjusted to a platelet count of […]. This plasma was incubated either with a solvent (1% dimethyl sulphoxide (DMSO) -physiological common salt solution) or with various concentrations of the compounds (s. Table II).
5 Minutes later, the platelets were stimulated with thrombin (1 or 10 International Units=I.U.) at 37° C. After 15 minutes, the reaction was stopped with ice-cold methanol (volume ratio 1:1), thereafter separated by 10 minutes centrifuging at 3000 U/min. (4° C.).

| Structure (SMILES) | Asthmatic reaction to the inhalation of an antigen [1] | maximum dosage-dependent suppression of the thromboxane B2 biosynthesis [2] |
| --- | --- | --- |
| [O-][S+](Sc1ccccc1)c1ccccc1 (stereo not shown) [compound 4, phenylthiosulphinic acid phenyl ester] | clearly weaken the asthmatic reaction | 76% |
| CS[S+](C)[O-] (stereo not shown) [compound 3, methylthiosulphinic acid methyl ester] | clearly weaken the asthmatic reaction | 61% |
